Entries after “also recorded” stand apart in the source; their conditions may differ. Square brackets hold non-standard residues; d marks the D form. Ends that are not written are not given here. Peptide text beside a SMILES is read from it. * marks the point of attachment. Lauroyl = CCCCCCCCCCCC(=O)*; Ahx = NCCCCCC(=O)O

Data set [1] deals with human foreskin fibroblasts (HFFs). The data set can be described thus: CCK-8 cell viability assay on host cells. The following applies: CCK-8, HFFs, 24 h; for IC50: 80-1.25 μM twofold dilution, three independent experiments, read-out: half-inhibitory concentration (IC50) on HFF viability; for cytotoxicity to HFFs: comparison with Lycosin-I where stated. In kind it is cell-based. The method, then:
HFF cells were seeded in 96-well plates (1 × 10^4 cells per well). After 24 h of incubation, the previous complete medium was removed and replaced with the new complete medium containing different concentrations (80–1.25 μM, twofold serial dilution) of lipopeptides. Cells were treated with the complete medium in one well as the control group (each group was set up with three wells). After 24 h, 10 μL of CCK-8 reagent was added to each well and then incubated for 2 h. The absorbance value was measured at 450 nm using a microplate reader. Three independent experiments were carried out.

The test system of data set [2] is T. gondii tachyzoites. The data set can be described thus: Intracellular proliferation assay of tachyzoites in HFFs. In kind it is cell-based, Toxoplasma gondii. The following applies: 10 μM, 24 h. The protocol: HFFs were seeded in 24-well plates (1 × 10^5 cells per well) with 14 mm coverslips and incubated for 24 h. The HFFs were infected with fresh tachyzoites at a MOI of 5 for 2 h. The HFFs were then washed twice with PBS to remove extracellular tachyzoites and then treated with Lycosin-I (5 μM, 10 μM), L-C12 (5 μM, 10 μM), L-an (5 μM, 10 μM), SDZ (10 μM, positive control) and DMEM (negative control) for 24 h each. The HFFs were then washed twice with PBS, fixed with methanol for 5 min, and then stained with Giemsa for 15 min. The coverslips were observed under a light microscope to count the number of tachyzoites in 100 parasitophorous vacuoles (PVs). Three independent experiments were carried out.

Another data set concerns TNF-α. The class given is in vivo, mouse. The following applies: 4 mg/kg, after 5 days of treatment, qRT-PCR. The method, then:
(§1) Once T. gondii has infected a host, a number of inflammatory responses can be induced in the host to resist T. gondii invasion and proliferation. Therefore, we wanted to investigate the expression levels of anti-inflammatory and pro-inflammatory factors in the mice treated with lipopeptides. The expression levels of IFN-γ, TNF-α, IL-4 and IL-10 in the spleen tissues of mice after 5 days of treatment were determined via qRT-PCR (Figure 5). […] Compared to the PBS group, all treatment groups promoted the upregulation of the pro-inflammatory cytokines IFN-γ and TNF-α and the anti-inflammatory cytokine IL-4.
(§2) Total RNA was extracted from each sample using Total RNA Isolation Kit (ENOVA BIO Co., Ltd., Wuhan, China), in accordance with the manufacturer’s instructions. Reverse transcription of RNA into cDNA was performed using the PerfectStart Uni RT&qPCR Kit (TransGen Biotech Co., Ltd., Beijing, China) in accordance with the instructions. cDNA was used as a template for qRT-PCR using PerfectStart Uni RT&qPCR Kit (TransGen Biotech Co., Ltd., Beijing, China). Primers, listed in Table 2, were designed and synthesized by a biotechnology company (Sangon Biotech Co., Ltd., Shanghai, China). Analysis was performed using the comparative threshold cycle method (2^−∆∆Ct). The gene expression levels of genes were normalized to those of housekeeping genes (β-actin or GAPDH).
(Real-time PCR tracks product formation cycle by cycle.)

In another data set the test system is IL-10. In kind it is in vivo, mouse. The following applies: 4 mg/kg, after 5 days of treatment, qRT-PCR. The method, then:
as §1, §2

For a further data set, the system named is IL-4. In kind it is in vivo, mouse. As to conditions: 4 mg/kg, after 5 days of treatment, qRT-PCR. The protocol: as §1, §2
The next data set relates to IFN-γ. The class given is in vivo, mouse. The following applies: 4 mg/kg, after 5 days of treatment, qRT-PCR. The method, then:
as §1, §2

Data set [3] has as its system T. gondii tachyzoites. In words: Invasion assay of tachyzoites into HFFs. The class given is cell-based, Toxoplasma gondii. The following applies: tachyzoites pretreated 2 h at 10 μM, HFFs infected MOI 5 for 2 h. The protocol: The HFF cells were seeded in 24-well plates with 14 mm coverslips (1 × 10^5 cells per well) and incubated for 24 h. Fresh tachyzoites were obtained aseptically from the peritoneal fluid of the KM mouse acutely infected with T. gondii. The tachyzoites were treated with Lycosin-I (5 μM, 10 μM), L-C12 (5 μM, 10 μM), L-an (5 μM, 10 μM), SDZ (10 μM, positive control) and DMEM (negative control) for 2 h each. The HFFs were then infected with pre-treated tachyzoites at a multiplicity of infection (MOI) of 5 (tachyzoites/cells = 5). After 2 h, the previous complete medium was removed and the HFFs were washed twice with PBS to remove extracellular tachyzoites. They were then fixed with methanol for 5 min, and then stained with Giemsa for 15 min. The coverslips were examined under a light microscope. The invasion rate of tachyzoites was calculated by counting the number of cells invaded by tachyzoites and the total number of cells in 5 randomly selected fields. Three independent experiments were carried out.

Another data set deals with RH strain of T. gondii. In kind it is in vivo, mouse. As to conditions: BALB/c mice, 1 × 10^3 tachyzoites i.p.; 4 mg/kg/day i.p. for 7 days; monitored 15 days; n = 8. The method, then: To evaluate the anti-T. gondii effect of lipopeptides in vivo, we established a mouse model acutely infected with the RH strain of T. gondii. Forty 8-week-old female BALB/c mice weighing 17–19 g were randomly divided into 5 groups (n = 8 per group) and intraperitoneally injected with 1 × 10^3 tachyzoites per mouse. Lycosin-I, L-C12, L-an and sulfadiazine (SDZ) were dissolved in PBS, respectively. As these peptides are small linear peptides that are easily degraded by pepsin; mice were treated with these peptides via intraperitoneal injection (the same way that the mice were infected with T. gondii) rather than oral gavage. After 4 h of infection, mice were traperitoneally injected with 4 mg/kg of Lycosin-I, L-C12, L-an and sulfadiazine solution (once a day) for 7 days. Mice in the negative control group were treated with PBS. Mice in this condition observed daily and the time of death was recorded. The experiment was approved by the Ethics Committee of the School of Basic Medicine of Central South University (approval number: 2021-KT24).

Data set [4] concerns T. gondii tachyzoites. The class given is cell-based, Toxoplasma gondii. The following applies: 10 μM, 7 days, 500 tachyzoites per well, HFFs. The method, then:
The HFF cells were seeded in 6-well plates (1 × 10^6 cells per well) and incubated for 48–72 h. Cells in the 6-well plates were infected with 500 fresh tachyzoites per well for 2 h. The well in which cells were not infected with tachyzoites was considered the blank control group. Cells infected with tachyzoites were then treated with Lycosin-I (10 μM), L-C12 (10 μM), L-an (10 μM), SDZ (10 μM, positive control) and DMEM (negative control), respectively. After 7 days, HFFs in the plates were washed twice with PBS, fixed with methanol for 5 min, and then stained with crystal violet for 20 min. Six-well plates were washed with running water, dried, photographed, and then the number and area of plaques were counted using Photoshop version 2020. Three independent experiments were carried out.

In data set [5] the test system is T. gondii tachyzoites. In words: Serum stability assay: serum incubation followed by trypan blue assay. In kind it is in vitro ADME, Toxoplasma gondii. The following applies: 100 μM in PBS containing 10% fetal bovine serum, 37 °C, 24 h; read-out tachyzoite mortality by trypan blue; three independent experiments. The method, then: (§3) To evaluate the difference of anti-T. gondii in the vitro between lipopeptides and Lycosin-I, we set up different concentration gradients, including 2.5 μM, 5 μM, 10 μM, 20 μM and 40 μM. The freshly obtained tachyzoites (3 × 10^6) were incubated with different concentrations of lipopeptides and PBS at room temperature for 2 h, then centrifuged at 3000 rbp for 8 min and the supernatant was discarded. The tachyzoite pellet was resuspended in PBS and mixed well. Then, the tachyzoite suspension was stained with 0.4% trypan blue staining solution for 5 min. Tachyzoite viability was observed under a light microscope (Motic China Group Co., Ltd., Xiamen, China), and five fields were randomly selected to calculate tachyzoite mortality. Three independent experiments were carried out.
A combination of serum incubation and a trypan blue assay was used to investigate whether or not the anti-Toxoplasma activity of lipopeptides and Lycosin-I was affected by serum. Briefly, stock solutions (1 mM) of Lycosin-I, L-C12 and L-an were diluted into 100 μM solutions in PBS containing 10% fetal bovine serum, and incubated at 37 °C for 24 h. Fresh tachyzoites were then treated with these solutions as described in the method in Section 5.3 for lipopeptide screening. Three independent experiments were carried out.

Data set [6] concerns T. gondii tachyzoites (RH strain). The data set can be described thus: Trypan blue assay of tachyzoite mortality (lipopeptide screening). In kind it is cell-based, Toxoplasma gondii. As to conditions: 2.5, 5, 10, 20, 40 μM, 2 h at room temperature. The method, then:
as §3

The conditions of data set [7]: mouse serum (b5) / 10% serum, 24 h, mass spectrometry; cited from earlier work. The source says: Cationic peptides with an α-helical structure found in venoms constitute a class of antimicrobial peptides (AMPs). In this class, amphiphilic peptides with net positive charges tend to adopt an α-helix structure when in contact with a hydrophilic/hydrophobic interface (such as the membrane of microorganisms), which helps the AMPs to insert into the cell membrane and disrupt the integrity of the cell membrane. Phospholipids on cell membranes are one of the targets of transmembrane peptides with an α -helical structure. […] The serum stability of Lycosin-I was in ...

As to `CCCCCCCCCCCC(=O)N[C@@H](CCCCN)C(=O)NCC(=O)N[C@@H](Cc1c[nH]c2ccccc12)C(=O)N[C@@H](Cc1ccccc1)C(=O)N[C@@H](CCCCN)C(=O)N[C@@H](C)C(=O)N[C@@H](CCSC)C(=O)N[C@@H](CCCCN)C(=O)N[C@@H](CO)C(=O)N[C@H](C(=O)N[C@@H](C)C(=O)N[C@@H](CCCCN)C(=O)N[C@@H](Cc1ccccc1)C(=O)N[C@H](C(=O)N[C@@H](C)C(=O)N[C@@H](CCCCN)C(=O)N[C@@H](CCC(=O)O)C(=O)N[C@@H](CCCCN)C(=O)N[C@@H](CC(C)C)C(=O)N[C@@H](CCCCN)C(=O)N[C@@H](CCC(=O)O)C(=O)N[C@@H](Cc1c[nH]cn1)C(=O)N[C@@H](CC(C)C)C(=O)O)[C@@H](C)CC)[C@@H](C)CC` [L-C12] (Lauroyl-KGWFKAMKSIAKFIAKEKLKEHL-OH), the IC50 in data set [1] worked out at 15.6 µM.
Take “H-KGWFKAMKSIAKFIAKEKLKEHL-OH [Lycosin-I]”: in the data set with T. gondii tachyzoites [2] (HFFs infected at MOI 5), the “proliferation rate of tachyzoites in HFFs (negative group = 100%)” value is “below 55%”. In the data set on T. gondii tachyzoites [2] (proportion in 100 PVs), the “PVs with 16 tachyzoites” value is reported as “hard to see a PV with 16 tachyzoites”. In addition, in the data set on TNF-α, the “expression of TNF-α in spleen compared to PBS group” value is recorded as “promoted the expression”. The “expression of IL-10 in spleen compared to PBS group” value in the data set on IL-10 was “inhibited the upregulation of IL-10”. Also, the “expression of IL-4 in spleen compared to PBS group” value in the data set on IL-4 is recorded as “promoted IL-4 expression”. In the data set on IFN-γ, the “expression of IFN-γ in spleen compared to PBS group” value was “promoted the expression”. In the data set with T. gondii tachyzoites [3], the “inhibition of tachyzoite invasion compared with SDZ” value is reported as “more pronounced inhibition than SDZ”. Moreover, in the data set with RH strain of T. gondii, the “survival time of mice compared to control group” value is “significantly prolonged the survival time”. For the same compound, in the data set with T. gondii tachyzoites [4], the “number and area of plaques in contrast with DMEM group” value is reported as “significantly reduced”; the “plaques compared to DMEM group” value was “reduced”.
Take KGWFKAMKSIAKFIAKEKLKEHL [Lycosin-I]: in the data set on T. gondii tachyzoites [5], the “anti-T. gondii activity after serum treatment compared to control untreated with serum” value is listed as “significantly had reduced anti-T. gondii activity; also recorded: only slightly decreased”. Further, in [1], the “cytotoxicity to HFFs” value is reported as “concentration-dependent cytotoxicity”.
Turning to `NCCCCCC(=O)O` [aminocaproic acid], the “anti-T. gondii activity in vitro (tachyzoite mortality)” value in data set [6] is on record as “no effect”.
Regarding `CC[C@H](C)[C@H](NC(=O)[C@H](Cc1ccccc1)NC(=O)[C@H](CCCCN)NC(=O)[C@H](C)NC(=O)[C@@H](NC(=O)[C@H](CO)NC(=O)[C@H](CCCCN)NC(=O)[C@H](CCSC)NC(=O)[C@H](C)NC(=O)[C@H](CCCCN)NC(=O)[C@H](Cc1ccccc1)NC(=O)[C@H](Cc1c[nH]c2ccccc12)NC(=O)CNC(=O)[C@H](CCCCN)NC(=O)CCCCCN)[C@@H](C)CC)C(=O)N[C@@H](C)C(=O)N[C@@H](CCCCN)C(=O)N[C@@H](CCC(=O)O)C(=O)N[C@@H](CCCCN)C(=O)N[C@@H](CC(C)C)C(=O)N[C@@H](CCCCN)C(=O)N[C@@H](CCC(=O)O)C(=O)N[C@@H](Cc1c[nH]cn1)C(=O)N[C@@H](CC(C)C)C(=O)O` [L-an] (H-[Ahx]KGWFKAMKSIAKFIAKEKLKEHL-OH), the “anti-T. gondii activity after serum treatment compared to control untreated with serum” value in the data set with T. gondii tachyzoites [5] is “no significant difference; also recorded: retained substantial anti-T. gondii activity”. In data set [1], the IC50 turned out to be 30.9 µM and the “cytotoxicity to HFFs” value is “no significant difference”.
For the compound `CCCCCCCCCCCC(=O)N[C@@H](CCCCN)C(=O)NCC(=O)N[C@@H](Cc1c[nH]c2ccccc12)C(=O)N[C@@H](Cc1ccccc1)C(=O)N[C@@H](CCCCN)C(=O)N[C@@H](C)C(=O)N[C@@H](CCSC)C(=O)N[C@@H](CCCCN)C(=O)N[C@@H](CO)C(=O)N[C@H](C(=O)N[C@@H](C)C(=O)N[C@@H](CCCCN)C(=O)N[C@@H](Cc1ccccc1)C(=O)N[C@H](C(=O)N[C@@H](C)C(=O)N[C@@H](CCCCN)C(=O)N[C@@H](CCC(=O)O)C(=O)N[C@@H](CCCCN)C(=O)N[C@@H](CC(C)C)C(=O)N[C@@H](CCCCN)C(=O)N[C@@H](CCC(=O)O)C(=O)N[C@@H](Cc1cnc[nH]1)C(=O)N[C@@H](CC(C)C)C(=O)O)[C@@H](C)CC)[C@@H](C)CC` [L-C12] (Lauroyl-KGWFKAMKSIAKFIAKEKLKEHL-OH), the “anti-T. gondii activity after serum treatment compared to control untreated with serum” value in the data set with T. gondii tachyzoites [5] was “no significant difference; also recorded: retained substantial anti-T. gondii activity”. Also, the “degradation after incubation in serum” value in data set [7] was “not degraded”. Also, in data set [1], the “cytotoxicity to HFFs” value is on record as “higher cytotoxicity”.
